Experimental data: patent publication US20060063782A1, “3-Hetero arylmethoxy ! pyridines and their analogues as p38 map kinase inhibitors” (priority 2002, published 2006)

Assays:
p38 MAP kinase = p38 MAP kinase (Homo sapiens, UniProt Q16539); assay: p38 MAP Kinase Assay (33P incorporation into myelin basic protein, filter plate); assay type: biochemical; details: MKK6-activated p38, MBP substrate, 50 minutes
[1] = tested on: LPS-induced TNF-α production in THP-1 cells; assay: Inhibition of LPS-Induced TNF-α Production in THP-1 Cells (ELISA); assay type: cell-based; details: Homo sapiens; PMA-treated THP-1 cells, 1 μg/ml LPS, 6 hours, TNF-α by ELISA; read-out: IC50 (inhibition of TNF-α release)
Protocol: THP-1 cells were suspended in culture medium containing 50 ng/ml PMA (SIGMA), seeded into a 96-well tissue culture plate (IWAKI) at 1×10^5 cells/well (100 μl/well) and incubated as described above for approximately 48 hours. The medium was then aspirated, the wells washed twice in Phosphate Buffered Saline and 1 μg/ml LPS (SIGMA) in culture medium was added (200 μl/well).
Test compounds were reconstituted in DMSO (SIGMA) and then diluted with the culture medium such that the final DMSO concentration was 0.1%. Twenty microlitre aliquots of test solution or medium only with DMSO (solvent control) were added to triplicate wells immediately following LPS addition, and incubated for 6 hours as described above. Culture supernatants were collected and the amount of human TNF-α present was determined by ELISA (R&D Systems) performed according to the manufacturer's instructions.
The IC50 was defined as the concentration of the test compound corresponding to half maximal inhibition of the control activity by non-linear regression analysis of their inhibition curves.

Sequence of p38 MAP kinase (Q16539 whole entry): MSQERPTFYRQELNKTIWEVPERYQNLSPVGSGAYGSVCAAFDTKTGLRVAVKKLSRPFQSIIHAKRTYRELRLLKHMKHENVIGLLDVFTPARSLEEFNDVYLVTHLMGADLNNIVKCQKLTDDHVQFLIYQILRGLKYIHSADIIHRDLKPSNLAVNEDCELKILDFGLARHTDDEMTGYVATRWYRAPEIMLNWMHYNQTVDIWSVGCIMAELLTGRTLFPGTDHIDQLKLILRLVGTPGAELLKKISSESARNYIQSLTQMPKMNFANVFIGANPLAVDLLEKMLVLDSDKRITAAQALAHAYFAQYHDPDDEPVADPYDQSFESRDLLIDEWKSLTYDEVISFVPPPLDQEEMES

Row | SMILES | IC50 (p38 MAP kinase; Table 2) | IC50 [1] | IC50 (p38 MAP kinase; Table 1)
1 | CC(C)(C)n1nc(-c2ccccc2)cc1NC(=O)Nc1ccc(F)c(COc2cnccn2)c1 [Compound 129] | < 20000 nM |  | 
2 | CC(C)(C)c1cc(NC(=O)Nc2ccc(Cl)c(COc3cnccn3)c2)[nH]n1 [Compound 95] | < 20000 nM |  | 
3 | Nc1ncccc1OCc1ccccc1-c1ccccc1 [Compound 2] |  |  | < 10000 nM
4 | Cc1cc(-n2nc(C(C)(C)C)cc2NC(=O)Nc2ccc(F)c(COc3cnccn3)c2)nc(C)n1 [Compound 157, 1-[5-tert-Butyl-2-(2,6-dimethyl-pyrimidin-4-yl)-2H-pyrazol-3-yl]-3-[4-fluoro-3-(pyrazin-2-yloxymethyl)-phenyl]-urea] | < 2000 nM |  | 
5 | O=C(Nc1ccccc1)Oc1cccc(COc2cnccn2)c1 [Compound 107, Phenyl-carbamic acid 3-(pyrazin-2-yloxymethyl)-phenyl ester] | < 200000 nM |  | 
6 | O=C(Nc1ccc(F)c(COc2cnccn2)c1)c1nnc(-c2ccccc2)o1 [Compound 126, 5-Phenyl-[1,3,4]oxadiazole-2-carboxylic acid [4-fluoro-3-(pyrazin-2-yloxymethyl)-phenyl]-amide] | < 2000 nM |  | 

Now from value to molecule:

Row | IC50 (p38 MAP kinase; Table 2) | IC50 [1] | IC50 (p38 MAP kinase; Table 1) | SMILES
7 | < 2000 nM | 210 nM |  | O=C(Nc1ccc(Cl)c(COc2cnccn2)c1)c1cc(F)cc(N2CCOCC2)c1 [Compound 94, N-[4-Chloro-3-(pyrazin-2-yloxymethyl)-phenyl]-3-fluoro-5-morpholin-4-yl-benzamide]
8 |  | 970 nM | < 2000 nM | O=C(Nc1ccc(Cl)c(COc2ccc(NCCO)nc2)c1)c1cc(F)cc(N2CCOCC2)c1 [Compound 76, N-{4-Chloro-3-[6-(2-hydroxy-ethylamino)-pyridin-3-yloxymethyl]-phenyl}-3-fluoro-5-morpholin-4-yl-benzamide]
9 |  |  | < 20000 nM | NC(=O)Nc1ccc(Cl)c(COc2cccnc2)c1 [Compound 63, [4-Chloro-3-(pyridin-3-yloxymethyl)-phenyl]-urea]
10 |  |  | < 20000 nM | O=C(Nc1ccc(F)c(COc2cccnc2)c1)c1cncc(N2CCOCC2)n1 [Compound 75, 6-Morpholin-4-yl-pyrazine-2-carboxylic acid [4-fluoro-3-(pyridin-3-yloxymethyl)-phenyl]-amide]
11 | < 2000 nM |  |  | Cc1nc(-c2cccc(C(=O)Nc3ccc(F)c(COc4cnccn4)c3)c2)cs1 [Compound 151, N-[4-Fluoro-3-(pyrazin-2-yloxymethyl)-phenyl]-3-(2-methyl-thiazol-4-yl)-benzamide]
